{"source": "patent US8653059B2", "about": "“Heterocyclic compounds as dipeptidyl peptidase-IV inhibitors for the treatment or prevention of diabetes” (Merck Sharp & Dohme Corp., priority 2007, dated 2014)", "origin": "cited, not measured here", "key": {"[1]": {"system": "cardiac allograft", "conditions": "rats; Transplantation 63: 1495-1500 (1997)"}, "[2]": {"system": "hematopoiesis", "conditions": "mouse model of cyclophosphamide-induced neutropenia; WO 99/56753"}, "[3]": {"molecular_target": "T1, DPP-4 (Homo sapiens, UniProt P27487)", "T1 construct": "GRF is rapidly degraded in plasma to GRF[3-44]; host or cells: plasma", "T1 sequence (P27487 whole entry, species assumed)": "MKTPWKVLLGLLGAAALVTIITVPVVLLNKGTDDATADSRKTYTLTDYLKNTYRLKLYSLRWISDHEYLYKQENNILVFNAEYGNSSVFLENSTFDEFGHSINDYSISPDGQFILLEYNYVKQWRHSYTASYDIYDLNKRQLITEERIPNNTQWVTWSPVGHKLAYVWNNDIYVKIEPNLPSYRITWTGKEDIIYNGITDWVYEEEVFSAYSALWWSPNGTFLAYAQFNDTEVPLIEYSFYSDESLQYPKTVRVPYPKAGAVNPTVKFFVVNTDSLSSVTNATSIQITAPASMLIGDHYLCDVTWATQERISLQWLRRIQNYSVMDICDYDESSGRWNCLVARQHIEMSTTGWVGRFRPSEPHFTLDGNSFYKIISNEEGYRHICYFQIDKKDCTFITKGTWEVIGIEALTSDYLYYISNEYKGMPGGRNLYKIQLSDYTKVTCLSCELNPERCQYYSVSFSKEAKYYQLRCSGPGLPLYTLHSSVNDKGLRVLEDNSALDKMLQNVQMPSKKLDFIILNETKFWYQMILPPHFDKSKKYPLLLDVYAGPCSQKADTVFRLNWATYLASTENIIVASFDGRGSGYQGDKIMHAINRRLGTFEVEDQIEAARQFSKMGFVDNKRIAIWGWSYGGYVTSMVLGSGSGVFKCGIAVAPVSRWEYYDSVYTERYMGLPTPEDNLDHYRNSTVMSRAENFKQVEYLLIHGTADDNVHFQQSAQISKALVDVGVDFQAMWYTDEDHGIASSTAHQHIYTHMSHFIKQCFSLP"}}}
{"molecule": "CC(C)N1CCC(c2ccccc2)(c2ccccc2)CC1", "note": "[Prodipine, Pro-Pro-diphenyl-phosphonate]", "values": [{"measurement": "cardiac allograft survival", "setting": "[1]", "result": "double cardiac allograft survival in rats from day 7 to day 14"}]}
{"molecule": "CC(C)[C@H](N)C(=O)N1CCC[C@H]1B(O)O", "note": "[Val-Boro-Pro]", "values": [{"measurement": "hematopoiesis", "setting": "[2]", "result": "stimulated hematopoiesis"}]}
{"molecule": "diprotin A", "values": [{"measurement": "degradation of GRF in plasma to GRF[3-44]", "setting": "[3]", "result": "prevented"}]}
